Columns and labels:
Format in all cases: cell-based, human
[1] = tested on: secretion of TNFα from LXFE 397 epidermoid adenocarcinoma Xenograft explants; assay: TNFα secretion from LXFE 397 epidermoid adenocarcinoma xenograft explants (ELISA); conditions: for TNFα content of the supernatants: 24 hours
Protocol: FIG. 4: Effects of Zardaverine (left graph) and Piclamilast (right graph) on the secretion of TNFα from LXFE 397 epidermoid adenocarcinoma Xenograft explants. Tumor fragments from mice carrying LXFE 397 xenografts were excised and cell suspensions were seeded into 24 Well plates. After seeding of the cells, Zardaverine at concentrations of 30, 10, and 3 μM, respectively, and Piclamilast at concentrations of 0.3; 0.1; and 0.03 μM, respectively were added and supernatants were harvested 24 hours later. TNFα content of the supernatants was quantitated using R&D Quantikine ELISA kits according to the manufacturers recommendations.
(§1) To this end primary cultures of tumor cells were derived from cachexia inducing human xenografts grown subcutaneously in nude mice.
(§2) 5 to 10 NMRI nude mice were implanted with tumor fragments derived from the above mentioned Xenografts and grown until the tumors reached approximately 0.5 g, which correlated well with the onset of cachexia. Animals were then sacrificed and tumors were excised. Cells were subsequently isolated under sterile conditions by the use of mechanic disintegrators, proteases, hyaluronidase, and DNAse I. The crude suspension was passed twice through sterile sieves with diameters of 200 and 50 μM, respectively.
(§3) Washed cell pellets were resuspended in Iscove's modified Dulbecco's Medium +20% FCS (fetal calf serum) and 0.24 to 1×10^6 tumor cells were seeded in 24 well plates. The cell isolates not only contained tumor cells, but also blood cells and stromal elements of murine origin. The cell lines RXF 486L was directly utilized and 1×10^6 cells were seeded into each well.
(§4) Piclamilast and Zardaverine were dissolved in 100% DMSO (dimethyl sulfoxide) and applied at a final concentration of 1 μM to 0.001 μM (Piclamilast) or 100 μM to 0.1 μM (Zardaverine). Drugs and cells were plated at the same time. 24 hours after seeding supernatants were collected, centrifuged, and stored at −80° C.
(§5) For the quantitative measurement of IL-1, IL-6, and TNFα, respectively, the supernatants were analyzed using Quantikine ELISA Kits from R&D Systems according to the manufacturer's recommendations.

[2] = tested on: secretion of TNFα from LXFA 526 lung adenocarcinoma Xenograft explants; assay: TNFα secretion from LXFA 526 lung adenocarcinoma xenograft explants (ELISA); conditions: for TNFα content of the supernatants: 24 hours, DMSO control 16.8 pg/ml
Protocol: (§6) FIG. 3: Effects of Zardaverine (left graph) and Piclamilast (right graph) on the secretion of TNFα from LXFA 526 lung adenocarcinoma Xenograft explants. Tumor fragments from mice carrying LXFA 526 xenografts were excised and cell suspensions were seeded into 24 Well plates. After seeding of the cells, Zardaverine at concentrations of 100, 3, and 0.1 μM, respectively, and Piclamilast at concentrations of 1, 0.3 and 0.001 μM, respectively were added and supernatants were harvested 24 hours later. TNFα content of the supernatants was quantitated using R&D Quantikine ELISA kits according to the manufacturer's recommendations.
as §1, §2, §3, §4, §5

[3] = tested on: secretion of IL-1 from LXFA 526 lung adenocarcinoma Xenograft explants; assay: IL-1 secretion from LXFA 526 lung adenocarcinoma xenograft explants (ELISA); conditions: for IL-1 content of the supernatants: 24 hours, DMSO control 85.3 pg/ml
Protocol: as §6, with “1:” for “3:”, “IL-1” for “TNFα”
as §1, §2, §3, §4, §5

[4] = tested on: secretion of IL-1 from RXF 393 hypernephroma Xenograft explants; assay: IL-1 secretion from RXF 393 hypernephroma xenograft explants (ELISA); conditions: for IL-1 content of the supernatants: 24 hours, DMSO control 46.9 pg/ml
Protocol: as §6, with “2:” for “3:”, “IL-1” for “TNFα”, “RXF 393 hypernephroma” for “LXFA 526 lung adenocarcinoma”, “RXF 393” for “LXFA 526”, “100” for “100, 3,”, “0.01” for “0.3”
as §1, §2, §3, §4, §5

COc1ccc(C(=O)Nc2c(Cl)cncc2Cl)cc1OC1CCCC1 [Piclamilast]
TNFα content of the supernatants ([1]; 0.03 μM, DMSO control 21.5 pg/ml): 14.1 pg/mL
TNFα content of the supernatants ([1]; 0.1 μM, DMSO control 21.5 pg/ml): 12.1 pg/mL
TNFα content of the supernatants ([1]; 0.3 μM, DMSO control 21.5 pg/ml): 10 pg/mL
modulation of TNFα levels (in words) ([1]; LXFE 397 model): able to inhibit the secretion of TNFα
TNFα content of the supernatants ([2]; 0.001 μM): 17.2 pg/mL
TNFα content of the supernatants ([2]; 0.3 μM): 15.1 pg/mL
TNFα content of the supernatants ([2]; 1 μM): 13.9 pg/mL
modulation of TNFα levels (in words) ([2]; LXFA 526 cells): able to inhibit the secretion of TNFα
IL-1 content of the supernatants ([3]; 0.001 μM): 81.9 pg/mL
IL-1 content of the supernatants ([3]; 0.3 μM): 64.4 pg/mL
IL-1 content of the supernatants ([3]; 1 μM): 68.9 pg/mL
Modulation of IL-1 expression (in words) ([3]; LXFA 526): able to suppress IL-1 levels
IL-1 content of the supernatants ([4]; 0.001 μM): 43.2 pg/mL
IL-1 content of the supernatants ([4]; 0.01 μM): 43.9 pg/mL
IL-1 content of the supernatants ([4]; 1 μM): 37.8 pg/mL
Modulation of IL-1 expression (in words) ([4]; RXF 393): able to suppress IL-1 levels

COc1cc(-c2ccc(=O)[nH]n2)ccc1OC(F)F [Zardaverine]
TNFα content of the supernatants ([1]; 3 μM, DMSO control 30.3 pg/ml): 27.7 pg/mL
TNFα content of the supernatants ([1]; 10 μM, DMSO control 30.3 pg/ml): 28.2 pg/mL
TNFα content of the supernatants ([1]; 30 μM, DMSO control 30.3 pg/ml): 20.1 pg/mL
TNFα content of the supernatants ([2]; 0.1 μM): 13.8 pg/mL
TNFα content of the supernatants ([2]; 3 μM): 12.9 pg/mL
TNFα content of the supernatants ([2]; 100 μM): 12.6 pg/mL
IL-1 content of the supernatants ([3]; 0.1 μM): 77.1 pg/mL
IL-1 content of the supernatants ([3]; 3 μM): 67.9 pg/mL
IL-1 content of the supernatants ([3]; 100 μM): 64.5 pg/mL
IL-1 content of the supernatants ([4]; 0.1 μM): 48.1 pg/mL
IL-1 content of the supernatants ([4]; 100 μM): 32.1 pg/mL

Source: patent publication US20060079540A1, “Pde4 and pde3/4 inhibitors for use in the treatment of cachexia” (Altana Pharma AG, priority 2002, published 2006)
